Source: the supplement of paper PMC10331698
± gives the standard deviation of the averaged measurements.

Key:
Assay in all cases: LOEC (log10 uM (lowest observed effect concentration))
[1] = compound: NS(=O)(=O)C(F)(F)C(F)(F)C(F)(F)C(F)(F)C(F)(F)C(F)(F)C(F)(F)C(F)(F)F [Perfluorooctanesulfonamide]
Description: (§1)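 BioMAP Diversity Plus panel in human primary cell co-cultures, 4 concentrations in duplicate blinded samples. Responses are log10 fold change versus DMSO control, processed with tcpl v2.1.0. A hit is called when responses at any concentration exceed the cutoff (the larger of 3*bmad or log10(1.2)); the lowest observed effect concentration (modl_ga, log10 uM) is reported for hits.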

Perfluorononanoic acid = compound: O=C(O)C(F)(F)C(F)(F)C(F)(F)C(F)(F)C(F)(F)C(F)(F)C(F)(F)C(F)(F)F [Perfluorononanoic acid]
Description: as §1

[2] = compound: O=C(O)C(F)(F)OC(F)(F)C(F)(F)OC(F)(F)C(F)(F)OC(F)(F)C(F)(F)C(F)(F)C(F)(F)F [Perfluoro-3,6,9-trioxatridecanoic acid]
Description: as §1

[3] = compound: O=C(O)C=C(C(F)(F)F)C(F)(F)F [3,3-Bis(trifluoromethyl)-2-propenoic acid]
Description: as §1

[4] = compound: O=C(O)C(F)(OC(F)(F)C(F)(F)C(F)(F)F)C(F)(F)F [Ammonium perfluoro-2-methyl-3-oxahexanoate]
Description: as §1

[5] = compound: CCNS(=O)(=O)C(F)(F)C(F)(F)C(F)(F)C(F)(F)C(F)(F)C(F)(F)C(F)(F)C(F)(F)F [N-Ethylperfluorooctanesulfonamide]
Description: as §1

Perfluoroundecanoic acid = compound: O=C(O)C(F)(F)C(F)(F)C(F)(F)C(F)(F)C(F)(F)C(F)(F)C(F)(F)C(F)(F)C(F)(F)C(F)(F)F [Perfluoroundecanoic acid]
Description: as §1

[6] = compound: OCC(F)(F)OC(F)(F)C(F)(F)OC(F)(F)C(F)(F)OC(F)(F)CO [1H,1H,11H,11H-Perfluorotetraethylene glycol]
Description: as §1

[7] = compound: O=S(=O)(O)CCC(F)(F)C(F)(F)C(F)(F)C(F)(F)C(F)(F)C(F)(F)C(F)(F)C(F)(F)F [8:2 Fluorotelomer sulfonic acid]
Description: as §1

[8] = compound: C[C@@H]1C[C@H]2[C@@H]3CCC4=CC(=O)C=C[C@]4(C)[C@@]3(F)[C@@H](O)C[C@]2(C)[C@@]1(O)C(=O)COP(=O)(O)O [Dexamethasone sodium phosphate]
Description: as §1

[9] = compound: O=S(=O)(O)C(F)(F)C(F)(F)C(F)(F)C(F)(F)C(F)(F)C(F)(F)C(F)(F)F [Perfluoroheptanesulfonic acid]
Description: as §1

[10] = compound: OCCC(F)(F)C(F)(F)C(F)(F)C(F)(F)F [4:2 Fluorotelomer alcohol]
Description: as §1

[11] = compound: O=C(O)CCC(F)(C(F)(F)F)C(F)(F)F [4,4-bis(Trifluoromethyl)-4-fluoropropanoic acid]
Description: as §1

[12] = compound: O=S(=O)(O)C(F)(F)C(F)(F)OC(F)(F)C(F)(F)F [Perfluoro(2-ethoxyethane)sulfonic acid]
Description: as §1

[13] = compound: OCC(F)(F)C(F)(F)C(F)(F)C(F)(F)C(F)(F)C(F)(F)CO [1H,1H,8H,8H-Perfluorooctane-1,8-diol]
Description: as §1

Test System	LOEC (log10 uM) [1]	LOEC (log10 uM) (Perfluorononanoic acid)	LOEC (log10 uM) [2]	LOEC (log10 uM) [3]	LOEC (log10 uM) [5]	LOEC (log10 uM) (Perfluoroundecanoic acid)	LOEC (log10 uM) [6]	also measured
3C HLADR down	1.54 ± 0.34	1.78	1.78	1.78	–	–	–	–
3C IL8 up	–	–	–	–	–	–	–	LOEC (log10 uM) [4]: 1.78
3C Proliferation down	1.3	1.78	1.3	–	1.78	0.845	1.54 ± 0.34	–
3C VCAM1 down	1.78	1.78	1.78	1.54 ± 0.34	1.78	–	–	–
4H Eotaxin3 down	1.78	1.78	1.78	1.78	1.54 ± 0.34	–	–	LOEC (log10 uM) [4]: 1.04 ± 1
4H MCP1 down	1.78	–	1.78	–	1.78	–	1.78	–
4H Pselectin down	1.78	–	1.78	1.78	1.54 ± 0.34	–	–	–
4H VCAM1 down	1.78	–	1.54 ± 0.34	0.573 ± 0.39	1.78	–	–	–
BE3C HLADR down	0.845	1.31 ± 0.66	0.845	–	1.3	0.573 ± 0.39	1.78	LOEC (log10 uM) [7]: 1.3
BE3C IL8 down	0.845	1.3	0.845	–	1.3	0.845	–	LOEC (log10 uM) [8]: 0.239 ± 0.34; LOEC (log10 uM) [7]: 1.78
BE3C IP10 down	0.845	1.3	0.845	–	1.07 ± 0.32	0.301	1.78	LOEC (log10 uM) [7]: 1.3
BE3C MMP1 down	–	1.78	0.845	–	–	0.845	–	LOEC (log10 uM) [8]: 0.477 ± 0.68
BE3C MMP1 up	–	–	–	–	1.3	–	–	LOEC (log10 uM) [4]: 1.78; LOEC (log10 uM) [9]: 1.48; LOEC (log10 uM) [7]: 1.3
BE3C tPA down	1.78	1.3	0.845	0.801 ± 0.71	1.3	0.845	–	LOEC (log10 uM) [8]: 0.239 ± 0.34
BF4T Eotaxin3 down	1.3	1.3	0.845	–	0.845	0.301	–	LOEC (log10 uM) [7]: 1.54 ± 0.34
BF4T IL8 up	–	–	–	–	–	–	–	LOEC (log10 uM) [9]: 1.48
BF4T MCP1 down	1.78	1.3	1.07 ± 0.32	–	1.3	0.845	1.3	–
BF4T tPA down	1.78	1.54 ± 0.34	0.845	1.07 ± 0.32	1.3	0.845	1.54 ± 0.34	–
BT PBMCCytotoxicity down	–	–	–	–	–	–	–	LOEC (log10 uM) [8]: 0
BT sIgG down	1.54 ± 0.34	–	1.78	1.78	1.54 ± 0.34	–	1.78	–
BT xIL2 down	–	–	–	0.845	–	–	–	LOEC (log10 uM) [8]: 0
BT xIL6 down	1.78	–	1.78	–	–	–	1.78	LOEC (log10 uM) [8]: 0.716 ± 0.34
BT xIL17A down	1.78	–	1.78	1.78	–	–	–	–

Test System	LOEC (log10 uM) [1]	LOEC (log10 uM) (Perfluorononanoic acid)	LOEC (log10 uM) [2]	LOEC (log10 uM) [3]	LOEC (log10 uM) [5]	LOEC (log10 uM) (Perfluoroundecanoic acid)	LOEC (log10 uM) [6]	also measured
BT xIL17F down	1.78	–	1.78	0.573 ± 0.39	1.54 ± 0.34	–	1.78	–
BT xTNFa down	1.54 ± 0.34	–	–	1.54 ± 0.34	–	–	1.78	–
BT xTNFa up	–	–	–	–	–	–	–	LOEC (log10 uM) [10]: 1.31 ± 0.66
CASM3C IL6 down	–	–	–	1.07 ± 0.32	–	–	–	LOEC (log10 uM) [8]: 0.239 ± 0.34
CASM3C MCP1 down	–	–	–	–	–	–	–	LOEC (log10 uM) [8]: 0.477 ± 0.68
CASM3C Proliferation down	1.78	–	1.78	1.78	–	–	–	–
CASM3C SAA up	–	–	–	–	–	–	–	LOEC (log10 uM) [11]: 1.54 ± 0.34; LOEC (log10 uM) [12]: 1.54 ± 0.34
CASM3C Thrombomodulin up	1.78	–	–	–	1.78	–	–	LOEC (log10 uM) [4]: 0.845
CASM3C VCAM1 down	1.78	–	1.78	0.573 ± 0.39	1.54 ± 0.34	–	–	LOEC (log10 uM) [4]: 1.31 ± 0.66
IMphg CD40 down	1.3	1.78	1.78	–	1.78	–	–	LOEC (log10 uM) [7]: 1.78
IMphg CD69 down	–	1.78	1.31 ± 0.66	–	1.78	–	–	LOEC (log10 uM) [7]: 1.78
IMphg ESelectin down	0.573 ± 0.39	–	1.3	1.78	1.54 ± 0.34	–	–	LOEC (log10 uM) [8]: 0
IMphg ESelectin up	–	–	–	–	–	–	–	LOEC (log10 uM) [7]: 1.78
IMphg IL8 down	–	–	–	–	–	–	–	LOEC (log10 uM) [8]: 0.239 ± 0.34
IMphg IL8 up	–	1.07 ± 0.32	–	1.3	1.78	–	–	LOEC (log10 uM) [4]: 0.573 ± 0.39
IMphg IL10 down	1.54 ± 0.34	1.78	1.78	0.845	–	–	1.78	LOEC (log10 uM) [8]: 0; LOEC (log10 uM) [4]: 0.301; LOEC (log10 uM) [9]: 1.48; LOEC (log10 uM) [12]: 1.78; LOEC (log10 uM) [7]: 1.3; LOEC (log10 uM) [13]: 1.31 ± 0.66
IMphg MCP1 down	1.54 ± 0.34	–	1.3	–	1.78	–	–	LOEC (log10 uM) [8]: 0.477
IMphg MIP1a down	–	–	1.54 ± 0.34	–	–	–	–	LOEC (log10 uM) [8]: 0
IMphg VCAM1 down	1.78	1.78	1.78	1.78	1.78	–	–	LOEC (log10 uM) [8]: 1.48
KF3CT IL1a down	1.78	0.801 ± 0.71	1.3	–	1.78	0.845	–	LOEC (log10 uM) [7]: 1.3
LPS CD40 down	1.78	1.78	1.78	1.78	1.78	–	–	–
LPS IL1a down	1.78	1.78	1.78	–	–	-0.427 ± 0.39	–	LOEC (log10 uM) [7]: 1.78
LPS IL8 up	–	–	–	–	–	–	–	LOEC (log10 uM) [4]: 1.54 ± 0.34; LOEC (log10 uM) [12]: 1.54 ± 0.34

Test System	LOEC (log10 uM) [1]	LOEC (log10 uM) (Perfluorononanoic acid)	LOEC (log10 uM) [2]	LOEC (log10 uM) [3]	LOEC (log10 uM) [5]	LOEC (log10 uM) (Perfluoroundecanoic acid)	LOEC (log10 uM) [6]	also measured
LPS MCSF down	1.78	–	1.78	1.31 ± 0.66	–	–	–	–
LPS PGE2 down	–	1.54 ± 0.34	1.78	–	–	–	–	LOEC (log10 uM) [8]: 1.22 ± 0.37; LOEC (log10 uM) [7]: 1.78
LPS TNFa down	1.78	–	1.78	–	–	0.845	–	LOEC (log10 uM) [8]: 0.954
LPS Thrombomodulin up	–	–	1.78	–	1.78	–	1.04 ± 1	LOEC (log10 uM) [7]: 1.54 ± 0.34
LPS VCAM1 down	1.78	1.78	1.78	0.573 ± 0.39	–	–	–	–
MyoF ACTA1 down	1.3	1.78	0.845	–	1.78	0.845	1.78	–
MyoF VCAM1 down	1.3	1.78	0.845	1.3	1.3	0.845	–	–
SAg CD40 down	1.3	1.78	1.78	–	1.3	0.845	1.78	–
SAg CD69 down	1.54 ± 0.34	1.78	1.54 ± 0.34	1.78	1.3	0.845	–	–
SAg Eselectin down	1.78	–	1.78	1.3	1.78	–	1.78	LOEC (log10 uM) [8]: 0.716 ± 0.34
SAg IL8 down	1.78	1.78	1.3	1.78	1.78	–	1.78	–
SAg Proliferation down	1.78	1.78	1.78	1.78	1.78	–	–	–
hDFCGF IP10 down	0.573 ± 0.39	1.78	0.845	–	0.845	0.301	1.3	–
hDFCGF ITAC down	0.845	1.78	0.845	–	0.845	0.845	1.3	–
hDFCGF MCP1 down	1.3	–	0.845	–	1.78	0.573 ± 0.39	1.54 ± 0.34	–
hDFCGF MCSF down	1.3	–	0.845	–	1.3	0.845	1.54 ± 0.34	–
hDFCGF MIG down	0.573 ± 0.39	1.54 ± 0.34	0.845	–	1.3	0.845	0.845	–
hDFCGF MMP1 down	1.3	–	0.845	–	1.78	0.845	–	LOEC (log10 uM) [8]: 0.954
hDFCGF MMP1 up	–	–	–	–	–	–	1.54 ± 0.34	–
hDFCGF Proliferation down	1.3	1.54 ± 0.34	0.845	1.78	1.3	0.301	1.04 ± 1	–
hDFCGF VCAM1 down	1.07 ± 0.32	–	0.845	1.78	0.301	0.301	1.3	–
